# Data published in US6689789B2, “Compounds useful for inhibition of farnesyl protein transferase” (Schering Corporation, priority 1997, dated 2004).
# Target: farnesyl protein transferase (Homo sapiens, UniProt P49356)
# Assay: FPT IC50, inhibition of farnesyl protein transferase, in vitro enzyme assay
# Type: biochemical
# Details: procedure of WO 95/10516
# Method: FPT IC50 (inhibition of farnesyl protein transferase, in vitro enzyme assay) and COS Cell IC50 (Cell-Based Assay) were determined following the assay procedures described in WO 95/10516, published Apr. 20, 1995. GGPT IC50 (inhibition of geranylgeranyl protein transferase, in vitro enzyme assay), Cell Mat Assay, and anti-tumor activity (in vivo anti-tumor studies) could be determined by the assay procedures described in WO 95/10516. The disclosure of WO 95/10516 is incorporated herein by reference thereto.
row,SMILES,IC50 [nM]
1,"O=C(Cc1cc[n+]([O-])cc1)N1CCC(C2(O)c3ncc(Br)cc3CCc3cc(Cl)cc(Br)c32)CC1 (centres unmarked) [Example #1 Step C, 4-(3,10-dibromo-8-chloro-6,11-dihydro-11-hydroxy-5H-benzo[5,6]cyclohepta[1,2-b]pyridin-11-yl)-1-(4-pyridinylacetyl)piperidine N1-oxide]",< 2
2,"CC(C)(C)OC(=O)N1CCC(CC(=O)N2CCC(C3(O)c4ncc(Br)cc4CCc4cc(Cl)cc(Br)c43)CC2)CC1 (centres unmarked) [Example #2 Step A, 4-(3,10-dibromo-8-chloro-6,11-dihydro-11-hydroxy-5H-benzo[5,6]cyclohepta[1,2-b]pyridin-11-yl)-1-(N-BOC-4-piperdinylacetyl)piperidine]",42
3,"O=C(CC1CCNCC1)N1CCC(C2(O)c3ncc(Br)cc3CCc3cc(Cl)cc(Br)c32)CC1 (centres unmarked) [Example #2 Step B, 4-[2-[4-(3,10-dibromo-8-chloro-6,11-dihydro-11-hydroxy-5H-benzo[5,6]-cyclohepta[1,2-b]pyridin-11-yl)-1-piperdinyl]-2-oxoethyl]-1-piperidine]",12.5
4,"NC(=O)N1CCC(CC(=O)N2CCC(C3(O)c4ncc(Br)cc4CCc4cc(Cl)cc(Br)c43)CC2)CC1 (centres unmarked) [Example #2 Step C, 4-[2-[4-(3,10-dibromo-8-chloro-6,11-dihydro-11-hydroxy-5H-benzo[5,6]cyclohepta[1,2-b]pyridin-11-yl)-1-piperdinyl]-2-oxoethyl]-1-piperidinecarboxamide]",10.8
5,"NC(=O)CN1CCC(CC(=O)N2CCC(C3(O)c4ncc(Br)cc4CCc4cc(Cl)cc(Br)c43)CC2)CC1 (centres unmarked) [compound 3, 4-[2-[4-(3,10-dibromo-8-chloro-6,11-dihydro-11-hydroxy-5H-benzo[5,6]cyclohepta-[1,2-B]pyridin-11-yl)-1-piperidinyl]-2-oxoethyl]-1-piperidineacetamide]",8.7
